From patent publication US8759513B2, “Polymorphic form of rifaximin and process for its preparation” (Sequent Scientific Limited, priority 2011, dated 2014)

Experiment: Stability of amorphous rifaximin on storage, followed by PXRD spectroscopy
Assay type: physicochemical
Settings: as indicated by the PXRD spectroscopy

effect of external parameters such as ambient humidity (ambient humidity): unaffected
Structure (SMILES): CO[C@H]1/C=C/O[C@@]2(C)Oc3c(C)c(O)c4c(O)c(c5c(nc6cc(C)ccn65)c4c3C2=O)NC(=O)/C(C)=C\C=C\[C@H](C)[C@H](O)[C@@H](C)[C@@H](O)[C@@H](C)[C@H](OC(C)=O)[C@@H]1C [amorphous rifaximin, (2S,16Z,18E,20S,21S,22R,23R,24R,25S,26S,27S,28E)-5,6,21,23,25-pentahydroxy-27-methoxy-2,4,11,16,20,22,24,26-octamethyl-2,7-(epoxypentadeca-[1,11,13]trienimino)benzofuro[4,5-e]pyrido[1,2-α]-benzimidazole-1,15(2H)-dione, 25-acetate]
chemical and polymorphic stability on storage (on storage): very stable chemically and polymorphically on storage
